Test results taken from patent US20130012466A1 (priority 2006, published 2013).
Entries after “also recorded” stand apart in the source; their conditions may differ. Like-named read-outs stand apart in the source and are kept apart here.

How the values were obtained:
tubulin = assay: In vitro tubulin polymerization assay (fluorescence-based); format: biochemical; set-up: key to tubulin polymeriz.: ‘D’ designates destabilizer; ‘S’ designates stabilizer; details: for effect on tubulin polymerization / microtubules: tested in duplicate on at least two days
Method: In vitro tubulin polymerization assays were performed using a fluorescence-based assay (Cytoskeleton, Inc., Denver, Colo.). […] Aliquots (5 μL) of each compound or control were added to a 96-well black half area plate (Corning Costar, Inc.) pre-warmed to 37° C. Cold tubulin reaction mix (50 μL 1× Buffer—80 mM piperazine-N,N′-bis[2-ethanesulfonic acid]sequisodium salt; 2.0 mM magnesium chloride; 0.5 mM ethylene glycol-bis[β-amino-ethyl ether) N,N,N′,N′-tetra-acetic acid, pH 6.9, 10 μM fluorescent reporter; 20% tubulin glycerol buffer—80 mM piperazine-N,N′-bis[2-ethanesulfonic acid] sequisodium salt; 2.0 mM magnesium chloride; 0.5 mM ethylene glycol-bis(β-amino-ethyl ether) N,N,N′,N′-tetra-acetic acid, 60% v/v glycerol, pH 6.9, 1 mM GTP; and 2 mg mL^−1 tubulin stock) was added to each of the compounds. […] Polymerization curves were generated in Excel after background correction and the effects of test compounds were compared to controls.
Library members that accelerated the rate of tubulin polymerization were deemed microtubule stabilizers, whereas compounds that decelerated the rate of tubulin polymerization were deemed microtubule de-stabilizers.

Du145 = assay: Cytotoxicity assay (cell titer-glo and calcein AM), Du145; details: Du145, % error in parentheses
Hep3B = assay: Cytotoxicity assay (cell titer-glo and calcein AM), Hep3B; details: Hep 3B, % error in parentheses
A549 cells [1] = assay: Drug combination study with colchicine (Chou-Talalay combination index); details: for plus colchicine, mean CI / plus colchicine, median CI: combination index, colchicine held at IC10, A549 cells; for interaction with colchicine: drug combination, A549 cells, Chou-Talalay
Method: (§1) Ten thousand A549 cells per well were plated in triplicate in 96 well black tissue culture treated plates. Cells were incubated for one hour at 37° C. to allow cells to attach.
(§2) All synergy experiment results were replicated at least three times and the overall effects analyzed by averaging all combination indexes generated if the fraction affected was greater than 0.2.

[2] = system: mouse mammary normal epithelial control cell line; assay: Cytotoxicity assay, normal control cell line
ADR-RES = assay: Cytotoxicity assay (cell titer-glo and calcein AM), ADR-RES; details: NCI/ADR RES, % error in parentheses
A549 cells [3] = assay: Drug combination study with paclitaxel (Chou-Talalay combination index); details: for synergy (paclitaxel): combination index class, combination with paclitaxel, Chou-Talalay method; for plus paclitaxel, mean CI / plus paclitaxel, median CI: combination index, paclitaxel held at IC10, A549 cells; for interaction with paclitaxel/taxol: drug combination, A549 cells, Chou-Talalay;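 as to all read-outs here: combination indexes averaged only over points where fraction affected exceeded 0.2, with each synergy experiment repeated at least three times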
Method: as §1, §2

NCI-H460 = assay: Cytotoxicity assay (cell titer-glo and calcein AM), NCI-H460; details: NCI-H460, % error in parentheses
SF-268 = assay: Cytotoxicity assay (cell titer-glo and calcein AM), SF-268; details: SF-268, % error in parentheses
A549 = assay: Cytotoxicity assay (cell titer-glo and calcein AM), A549; details: A549, % error in parentheses
SK-OV-3 = assay: Cytotoxicity assay (cell titer-glo and calcein AM), SK-OV-3
MCF7 = assay: Cytotoxicity assay (cell titer-glo and calcein AM), MCF7
[4] = system: nine human cancer cell lines and one normal mouse control cell line; assay: Cytotoxicity screen across the whole cell line panel; format: cell-based
[5] = Precipitation in assay media; format: physicochemical; details: cell culture media / assay
[6] = read-out: Cytotoxicity IC50, Du145, CTG, CTG (cell titer-glo) readout
[7] = read-out: Cytotoxicity IC50, Du145, calcein, calcein AM readout
[8] = read-out: Cytotoxicity IC50, Hep 3B, CTG, CTG (cell titer-glo) readout
[9] = read-out: Cytotoxicity IC50, Hep 3B, calcein, calcein AM readout
[10] = read-out: Cytotoxicity IC50, NmuMG, CTG, CTG (cell titer-glo) readout, % error in parentheses
[11] = read-out: Cytotoxicity IC50, NmuMG, calcein, calcein AM readout, % error in parentheses
[12] = read-out: Cytotoxicity IC50, NCI/ADR RES, CTG, CTG (cell titer-glo) readout
[13] = read-out: Cytotoxicity IC50, NCI/ADR RES, calcein, calcein AM readout
[14] = read-out: Cytotoxicity IC50, NCI-H460, CTG, CTG (cell titer-glo) readout
[15] = read-out: Cytotoxicity IC50, NCI-H460, calcein, calcein AM readout
[16] = read-out: Cytotoxicity IC50, SF-268, CTG, CTG (cell titer-glo) readout
[17] = read-out: Cytotoxicity IC50, SF-268, calcein, calcein AM readout
[18] = read-out: Cytotoxicity IC50, A549, CTG, CTG (cell titer-glo) readout
[19] = read-out: Cytotoxicity IC50, A549, calcein, calcein AM readout
[20] = read-out: Cytotoxicity IC50, SK-OV-3, CTG, SK-OV-3, CTG (cell titer-glo) readout, % error in parentheses
[21] = read-out: Cytotoxicity IC50, SK-OV-3, calcein, SK-OV-3, calcein AM readout, % error in parentheses
[22] = read-out: Cytotoxicity IC50, MCF7, CTG, CTG (cell titer-glo) readout, % error in parentheses
[23] = read-out: Cytotoxicity IC50, MCF7, calcein, calcein AM readout, % error in parentheses

| Compound | tubulin polymeriz. (tubulin) | effect on tubulin polymerization / microtubules (tubulin) | IC50 (Du145; [6]) [nM] | IC50 (Du145; [7]) [nM] | IC50 (Hep3B; [8]) [nM] | IC50 (Hep3B; [9]) [nM] | IC50 [2, 10] [nM] | IC50 [2, 11] [nM] | IC50 (ADR-RES; [12]) [nM] | IC50 (ADR-RES; [13]) [nM] | IC50 (NCI-H460; [14]) [nM] | IC50 (NCI-H460; [15]) [nM] | IC50 (SF-268; [16]) [nM] | IC50 (SF-268; [17]) [nM] | IC50 (A549; [18]) [nM] | IC50 (A549; [19]) [nM] | IC50 (SK-OV-3; [20]) [nM] | IC50 (SK-OV-3; [21]) [nM] | IC50 (MCF7; [22]) [nM] | IC50 (MCF7; [23]) [nM] | other results |
| --- | --- | --- | --- | --- | --- | --- | --- | --- | --- | --- | --- | --- | --- | --- | --- | --- | --- | --- | --- | --- | --- |
| D-glucorono-6,3-lactonide [Col45] | D | destabilizing; also recorded: destabilized microtubules | 1140 | 939 | 793 | 962 | 1460 | > 10000 | 1140 | 403 | 775 | 1020 | 398 | 462 | 1100 | 1060 | 836 | 887 | 760 | 679 | plus colchicine, mean CI (A549 cells [1]): 107.40; plus colchicine, median CI (A549 cells [1]): 102.90; interaction with colchicine (A549 cells [1]): strong antagonism; synergy (paclitaxel) (A549 cells [3]): ++++ (strong synergism, Cl 0.1-0.3); plus paclitaxel, mean CI (A549 cells [3]): 0.12; plus paclitaxel, median CI (A549 cells [3]): 0.07; interaction with paclitaxel/taxol (A549 cells [3]): strong synergism; IC50 ([4]; cell lines other than ADR-Res, SF-268 and HCT-116, read-out: potencies (IC50) in all other cell lines examined): > 900 nM |
| 2-deoxy-D-galactoside [Col6] | D | destabilizing; also recorded: destabilized microtubules | 892 | 958 | 817 | 1120 | 3260 | 4170 | 877 | 887 | 745 | 948 | 632 | 691 | 782 | 942 | 388 | 381 | 665 | 2220 | plus colchicine, mean CI (A549 cells [1]): 1.30; plus colchicine, median CI (A549 cells [1]): 1.19; interaction with colchicine (A549 cells [1]): antagonism; synergy (paclitaxel) (A549 cells [3]): + (slight synergism, Cl 0.85-0.9); plus paclitaxel, mean CI (A549 cells [3]): 0.88; plus paclitaxel, median CI (A549 cells [3]): 0.52; interaction with paclitaxel/taxol (A549 cells [3]): synergy; IC50 (SK-OV-3; read-out: IC50 in SK-OV-3 cells): 381 nM; IC50 ([4]; all cell lines other than SK-OV-3, range printed with mixed units nM-μM, read-out: potencies (IC50) in all other cell lines): 691 to 1120 nM |
| COc1cc2c(c(OC)c1OC)-c1ccc(OC)c(=O)cc1[C@@H](NC(C)=O)CC2 [colchin] |  |  | 169 |  |  |  |  |  | 18 |  |  |  | 67 |  |  |  |  |  |  |  | IC50 (HCT-116): 153 nM |
| COc1cc2c(c(OC)c1OC)-c1ccc(OC)c(=O)cc1C(NC(=O)CN(OC)C1OC(COCc3ccccc3)C(OCc3ccccc3)C1OCc1ccccc1)CC2 (stereo not drawn) [Col53] |  |  | 41 | 32 | 47 | 69 | 120 | 392 | 46 | 37 | 41 | 71 | 37 | 18 | 48 | 62 | 42 | 36 | 49 | 39 | precipitation [5]: precipitation in cell culture media; also recorded: precipitated |
| COc1cc2c(c(OC)c1OC)-c1ccc(OC)c(=O)cc1[C@@H](NC(=O)CN(OC)[C@@H]1O[C@H](CO)[C@@H](O[C@H]3O[C@H](CO)[C@@H](O[C@H]4O[C@H](CO)[C@@H](O)[C@H](O)[C@H]4O)[C@H](O)[C@H]3O)[C@H](O)[C@H]1O)CC2 [Col13, maltotrioside] |  |  | > 10000 | > 10000 | > 10000 | > 10000 | > 10000 | > 10000 | > 10000 | > 10000 | > 10000 | 2580 | > 10000 | > 10000 | > 10000 | > 10000 | > 10000 | > 10000 | 9860 | > 10000 | IC50 (HCT-116): > 10000 nM |
